The results in this text go back to publication PMC7932521, “2-aminobenzimidazoles for leishmaniasis: From initial hit discovery to in vivo profiling” (PLoS Neglected Tropical Diseases, 2021).

SMILES strings stand for the structures. Where two headings read alike, the source gives them in different places.

Experiment [1] concerns Leishmania infantum MHOM/MA(BE)/67/ITMAP263 amastigotes. Put plainly: L. infantum intracellular amastigote assay in PMM. Type of experiment: cell-based. The following applies: Leishmania infantum. The method in brief: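 Mouse peritoneal macrophages infected with hamster spleen-derived amastigotes (2 h, 37°C), then exposed to 4-fold dilutions from 64 μM (DMSO <1%) for 5 days at 37°C, 5% CO2. Burden scored microscopically after Giemsa staining as percent reduction vs untreated wells; IC50 as geometric mean of ≥2 experiments.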

For experiment [2], the system named is L. infantum (MHOM/BR/2005/NLC) strain expressing luciferase. The experiment is classed as in vivo, Leishmania infantum. The note with it: 40 mg/kg/day oral, 5 days, and washout. On the procedure:
Groups of female BALB/c mice (n = 5) were infected with 10^8 stationary phase promastigotes of L. infantum chagasi-LUC in a final volume of 100 μL by the intraperitoneal route. At day 14 post-infection, groups were orally treated for 5 days with either drug vehicle only (10% ethanol, 40% PEG400 and 0.4% Tween80 in saline buffer—pH adjusted to 9), miltefosine (40 mg/kg QD) or with compounds 29 and 39 (25 mg/kg QD). Light emission in the ventral abdominal cavity of infected animals was recorded by bioimaging (IVIS Spectrum, Caliper Life Sciences) on 14, 19- and 24-days post-infection. Before imaging, mice received 75 mg/kg VivoGlo™ Luciferin (Promega Corporation) (i.p.) and were anesthetized in a 2% isoflurane atmosphere (Cristália). Animals were then transferred to the imaging chamber and kept in a 2% isoflurane atmosphere. Emitted photons were collected using the high resolution (medium binning) mode. Total photon emission from a defined region of interest (ROI) corresponding to the whole abdominal area was registered. The same ROI was applied to all animals in any given group. Images were acquired 15 min after luciferin injection. Total photon emission from each mouse was quantified with Living Image software version 4.3.1 (Caliper Life Sciences), and results were expressed as the number of photons/s/ROI subtracted from the corresponding ROI in uninfected animals. The detected signal was presented as a pseudocolor image representing light intensity (red = most intense and blue = least intense) and superimposed on the gray scale reference image.

Experiment [3] deals with L. major MHOM/SA/85/JISH118. Put plainly: VL/CL panel, intracellular amastigotes. The experiment is classed as cell-based. The following applies: Leishmania major; average; read-out: IC-50 L. major MHOM/SA/85/JISH118. The method, then: (§1) For the antileishmania in vitro assays, 3×10^4 PMM/well were seeded in 96-well plates. After 24h, 5×10^5 amastigotes/well were added and incubated for 2h at 37°C. Next, the compounds in 4-fold serial dilutions were added and the plates were further incubated for 5 days (37°C, 5% CO2). Parasite burdens were assessed using an inverted microscope after Giemsa staining. The results were expressed as percent reduction in parasite burdens compared to negative control wells (100% growth) and IC50 values were determined. Values represent the geometric mean of at least two independent experiments. Miltefosine was used as the positive control in all plates.

Experiment [4] concerns L. guyanensis MHOM/PE/02/PER 054/0. Put plainly: VL/CL panel, intracellular amastigotes. The experiment is classed as cell-based. The note with it: Leishmania guyanensis; average; read-out: IC-50 L. guyanensis MHOM/PE/02/PER 054/0. On the procedure:
as §1

Experiment [5] concerns L. donovani MHOM/ET/2007/LLM-1600. Put plainly: VL/CL panel, intracellular amastigotes. Type of experiment: cell-based. The following applies: Leishmania donovani; average; read-out: IC-50 L. donovani MHOM/ET/2007/LLM-1600. On the procedure: as §1
Experiment [6] has as its system L. donovani MHOM/NP/03/BPK275/0-cl18. Put plainly: VL/CL panel, intracellular amastigotes. Type of experiment: cell-based. The note with it: Leishmania donovani; average; read-out: IC-50 L. donovani MHOM/NP/03/BPK275/0-cl18. On the procedure:
as §1

Experiment [7] concerns L. infantum LEM3323-cl4 MIL. Put plainly: VL/CL panel, intracellular amastigotes. Type of experiment: cell-based. The note with it: Leishmania infantum, read-out: IC-50 L. infantum LEM3323-cl4 MIL. The method, then:
as §1

In experiment [8] the test system is L. infantum MHOM/BR/2007/WC (L3015). Put plainly: VL/CL panel, intracellular amastigotes. Type of experiment: cell-based. The note with it: Leishmania infantum; average; read-out: IC-50 L. infantum MHOM/BR/2007/WC (L3015). The method, then: as §1
Experiment [9] has as its system L. infantum MHOM/FR/96/LEM3323-cl4. Put plainly: VL/CL panel, intracellular amastigotes. Type of experiment: cell-based. The following applies: Leishmania infantum; average; read-out: IC-50 L. infantum MHOM/FR/96/LEM3323-cl4. The method, then: as §1
Experiment [10] relates to L. braziliensis MHOM/BR/94/H3227. Put plainly: VL/CL panel, intracellular amastigotes. The experiment is classed as cell-based. The following applies: Leishmania braziliensis; average; read-out: IC-50 L. braziliensis MHOM/BR/94/H3227. The method, then:
as §1

Experiment [11] concerns L. panamensis MHOM/PA/71/LS94. Put plainly: VL/CL panel, intracellular amastigotes. The note with it: Leishmania panamensis; average; read-out: IC-50 L. panamensis MHOM/PA/71/LS94. The experiment is classed as cell-based. On the procedure: as §1
The subject of experiment [12] is L. infantum LEM3323-cl4 PMM. Put plainly: VL/CL panel, intracellular amastigotes. The experiment is classed as cell-based. The following applies: Leishmania infantum, read-out: IC-50 L. infantum LEM3323-cl4 PMM. The method, then:
as §1

The test system of experiment [13] is L. donovani MHOM/ NP/2003/ BPK282/0-cl4. Put plainly: VL/CL panel, intracellular amastigotes. The experiment is classed as cell-based. The following applies: Leishmania donovani; average; read-out: IC-50 L. donovani MHOM/ NP/2003/ BPK282/0-cl4. The method, then:
as §1

Experiment [14] deals with L. infantum MHOM/ES/2016/LLM-2346. Put plainly: VL/CL panel, intracellular amastigotes. Type of experiment: cell-based. The following applies: Leishmania infantum; average; read-out: IC-50 L. infantum MHOM/ES/2016/LLM-2346. On the procedure: as §1
The subject of experiment [15] is L. major MHOM/IL/81/Friedlin. Put plainly: VL/CL panel, intracellular amastigotes. Type of experiment: cell-based. The following applies: Leishmania major; average; read-out: IC-50 L. major MHOM/IL/81/Friedlin. On the procedure: as §1
Experiment [16] has as its system L. tropica MHOM/AF/2015/HTD7. Put plainly: VL/CL panel, intracellular amastigotes. The experiment is classed as cell-based. The following applies: Leishmania tropica; average; read-out: IC-50 L. tropica MHOM/AF/2015/HTD7. On the procedure: as §1

In the case of `CCCCCCCCCCCCCCCCOP(=O)([O-])OCC[N+](C)(C)C` [Miltefosine, reference compound], the IC50 in experiment [1] (120 h, intracellular amastigotes in PMM, 5 days, read-out: L. infantum IC50) is 11.2 µM; in experiment [1] (panel sheet, average, read-out: IC-50 L. infantum MHOM/MA/67/ITMAP263), 1.16 µM; in experiment [3], 24.1 µM; in experiment [4], 8.06 µM; in experiment [5], 2010 nM; in experiment [6], 2070 nM. In addition, the IC50 in experiment [7] came out at 20.3 µM; in experiment [8] it was 2160 nM; in experiment [9] it was 2010 nM; in [10], 1000 nM; in experiment [11], 1810 nM; in [12], 2690 nM. In addition, the IC50 in [13] is 1810 nM; in experiment [14], 2070 nM; in [15], 11.3 µM; in experiment [16], 2160 nM. In experiment [2], the “parasite load (total ventral bioluminescence)” value was “undetectable levels”.
